Results taken from ChEMBL document CHEMBL1148168, “The structures of aplysinamisines I, II, and III; new bromotyrosine-derived alkaloids from the Caribbean sponge Aplysina cauliformis” (J Nat Prod, 1993).
Converted amounts (≈) assume the structure as drawn. The source made the active and inactive calls. The calls are words filed in the database; no cut-off is given here.

Assays:
Staphylococcus aureus = assay: Antimicrobial activity against Staphylococcus aureus at 50 to 100 ug/disk; type: functional, organism-based
CCRF-CEM = assay: Cytotoxicity against human CCRF-CEM cells; type: functional, cell-based
Escherichia coli = assay: Antimicrobial activity against Escherichia coli at 50 to 100 ug/disk; type: functional, organism-based
Pseudomonas aeruginosa = assay: Antimicrobial activity against Pseudomonas aeruginosa at 50 to 100 ug/disk; type: functional, organism-based
MCF7 = assay: Cytotoxicity against human MCF7 cells; type: functional, cell-based
HCT-116 = assay: Cytotoxicity against human HCT116 cells; type: functional, cell-based

Compound	Activity (Staphylococcus aureus)	IC50 (CCRF-CEM)	Activity (Escherichia coli)	Activity (Pseudomonas aeruginosa)	IC50 (MCF7)	IC50 (HCT-116)
COC1=C(Br)[C@H](O)[C@@]2(C=C1Br)CC(C(=O)NC/C=C\c1c[nH]c(N)n1)=NO2 [APLYSINAMISINE I]	Active	> 50 µg/mL	Active	Active	> 50 µg/mL	
COC1=C(Br)[C@H](O)[C@@]2(C=C1Br)CC(C(=O)NCCCCCNC(=N)N)=NO2 [APLYSINAMISINE II]	Active	> 50 µg/mL	Active	Active	> 50 µg/mL	10 µg/mL (≈ 19.6 µM)
COC1=C(Br)[C@H](O)[C@@]2(C=C1Br)CC(C(=O)NCCCOc1c(Br)cc(C(O)CNC(C)=O)cc1Br)=NO2 (some centres not stated) [APLYSINAMISINE III]	Active	6 µg/mL (≈ 7.74 µM)	Active	Active	30 µg/mL (≈ 38.7 µM)	10 µg/mL (≈ 12.9 µM)
